This note sets out measurements from patent publication US9205102B2, “Method for treatment of castration-resistant prostate cancer” (The University of British Columbia, priority 2013, dated 2015).

e = 2'-O-(2-methoxyethyl) (MOE); d = 2'-deoxy (DNA)

What all share (assay type): cell-based
In data set [1] the test system is MR42F. Description: Cell viability in enzalutamide resistant cell line MR42F (FIG. 5B). As to conditions: compared to a scrambled control. The protocol: (§1) FIGS. 5A and B show cell viability in enzalutamide resistant cell lines MR42D and MR42F, respectively.
(§2) Tests were performed on androgen sensitive cells line (LNCaP), castrate resistant, enzalutamide-sensitive prostate cancer cell lines V16A and V16D, which were derived from LNCaP cells grown in castrated nude, Matsumoto, H.; Yamamoto, Y.; Shiota, M.; et al. Cancer Res. (2013) 73(16): 5206-17 and Kuruma, H; Matsumoto, H.; Shiota, M. et al. Mol Cancer Ther (2013) 12(5): 567-76; and castrate resistant, enzalutamide-resistant prostate cancer cell lines MR42D, MR49C, and MR49F which were derived from LNCaP cells grown in castrated nude mice treated with enzalutamide at 10 mg/kg PO daily. BPH-1 is an immortal, benign prostatic hyperplasia cell line (Hayward S W, Dahiya R, Cunha G R, et al. (1995). In Vitro Cell Dev Biol Anim 31: 14-24).

For data set [2], the system named is CRPC cell lines exhibiting resistance to enzaluatamide. Description: Killing of enzalutamide-resistant CRPC cell lines (summary statement). As to conditions: enzalutamide-resistant CRPC cell lines overexpressing IGFBP-2 or IGFBP-5. The protocol: In a further aspect of the invention, a method for treatment of prostate cancer is provided in which an agent effective to reduce expression of IGFBP-2 and IGFBP-5 is administered to a patient suffering from prostate cancer, and particularly CRPC, concurrently with the administration of androgen-receptor antagonist treatments. Administration of the antisense concurrently with the androgen-receptor antagonist treatment reduces selective pressure towards resistance within the cancer cell population and therefore can delay onset of androgen-receptor antagonist resistance as well as directly providing a therapeutic benefit by killing resistant cells.

Data set [3] has as its system IGFBP-2 or IGFBP-5 (predominant IGFBP). The experiment in a line: Reduction of IGFBP-2 or IGFBP-5 in prostate cancer cell lines in vitro (FIG. 2). As to conditions: concentrations of 10 nM to 100 nM.
For data set [4], the system named is IGFBP-2. The experiment in a line: IGFBP-2 level in V16 samples treated with OGX-225. As to conditions: V16 samples treated with OGX-225 (10 nM).
Data set [5] relates to MR42D. The experiment in a line: Cell viability in enzalutamide resistant cell line MR42D (FIG. 5A). As to conditions: compared to a scrambled control. The protocol:
as §1, §2

For “OGX-225: bispecific second generation antisense oligonucleotide to IGFBP-2 and IGFBP-5; 20 base phosphorothioate 5-10-5 MOE gapmer, 5′-CAGCAGCCGCAGCCCGGCTC-3′ (sugars from the 5' end e5 d10 e5, all C 5-methyl, all phosphorothioate, T or U not given here)”, the cell viability entry in data set [1] and in data set [5] was “substantially reduce the viability” throughout. Moreover, in data set [2], the “killing of resistant cells” value is “capable of killing these resistant cells”. Moreover, in data set [3], the “amount of the predominant IGFBP” value is on record as “reduce the amount of the predominant IGFBP in a dose dependent manner”. The IGFBP-2 level entry in data set [4] is recorded as “Reduction in the IGFBP-2 level”.
